Usually IC50 stands for the concentration needed to halve the response being measured.

Where a name gives a salt, the structure may show the parent alone. Where only a bound is given, the exact number is not on record here.

This is an account of results in patent US20080090863A1, “Pyridine Derivatives and Their Use as Medicaments for Treating Diseases Related to Mch Receptor” (TAISHO PHARMACEUTICAL CO., LTD., priority 2004, published 2008).

One experiment has as its target MCH receptor (Homo sapiens, UniProt Q99705). Briefly: High Throughput Functional Screening: FLIPR/FDSS6000 intracellular Ca2+ assay, antagonist activity against MCH. In kind it is cell-based. Details: class (percent of control at 10^−7 M or IC50): scale not given here. The conditions noted are these: FLIPR/FDSS, [Ca2+]i evoked by 50 nM MCH; class by percent of control at 10^−7 M or IC50. The text has this: Subsequently, a functional based assay was used to confirm the lead hits, referred to as FLIPR™ (the Fluorometric Imaging Plate Reader) and FDSS6000™ (Functional Drug Screening System). This assay utilized a non-endogenous, constitutively active version of the MCH receptor.
The FLIPR and FDSS assays are able to detect intracellular Ca^2+ concentration in cells, which can be utilized to assess receptor activation and determine whether a candidate compound is an, for example, antagonist, inverse agonist or agonist to a Gq-coupled receptor. The concentration of free Ca^2+ in the cytosol of any cell is extremely low, whereas its concentration in the extracellular fluid and endoplasmic reticulum (ER) is very high. Thus, there is a large gradient tending to drive Ca^2+ into the cytosol across both the plasma membrane and ER. The FLIPR™ and FDSS6000™ systems (Molecular Devices Corporation, HAMAMATSU Photonics K.K.) are designed to perform functional cell-based assays, such as the measurement of intracellular calcium for high-throughput screening. The measurement of fluorescent is associated with calcium release upon activation of the Gq-coupled receptors.
Fluorometric Imaging Plate Reader system was used to allow for rapid, kinetic measurements of intracellular fluorescence in 96 well microplates (or 384 well microplates). Simultaneous measurements of fluorescence in all wells can be made by FLIPR or FDSS6000™ every second with high sensitivity and precision. These systems are ideal for measuring cell-based functional assays such as monitoring the intracellular calcium fluxes that occur within seconds after activation of the Gq coupled receptor.
Briefly, the cells are seeded into 96 well at 5.5×10^4 cells/well with complete culture media (Dulbecco's Modified Eagle Medium with 10% fetal bovine serum, 2 mM L-glutamine, 1 mM sodium pyruvate and 0.5 mg/mL G418, pH 7.4) for the assay next day. On the day of assay, the media is removed and the cells are incubated with 100 μl of loading buffer (4 μM Fluo4-AM in complete culture media containing 2.5 mM Probenicid, 0.5 mg/ml and 0.2% bovine serum albumin) in 5% CO2 incubator at 37° C. for 1 hr. The loading buffer is removed, and the cells are washed with wash buffer (Hank's Balanced Salt Solution containing 2.5 mM Probenicid, 20 mM HEPES, 0.5 mg/mL and 0.2% bovine serum albumin, pH 7.4). One hundred fifty μl of wash buffer containing various concentrations of test compound is added to the cells, and the cells are incubated in 5% CO2 incubator at 37° C. for 30 min. Fifty μl of wash buffer containing various concentration of MCH are added to each well, and transient changes in [Ca^2+]i evoked by MCH are monitored using the FLIPR™ or FDSS in 96 well plates at Ex. 488 nm and Em. 530 nm for 290 second. When antagonist activity of compound is tested, 50 nM of MCH is used.
Use of FLIPR™ and FDSS6000™ can be accomplished by following manufacturer's instruction (Molecular Device Corporation and HAMAMATSU Photonics K.K.).
Turning to `Cc1ccnc(N[C@H]2CC[C@@H](NC(=O)c3ccc(F)c(Cl)c3)CC2)c1.Cl` [Example 35, 3-Chloro-4-fluoro-N-{cis-4-[(4-methylpyridin-2-yl)amino]cyclohexyl}benzamide hydrochloride], the “class (percent of control at 10^−7 M or IC50)” value amounted to 2.

On to `Cc1cnc(N[C@H]2CC[C@@H](NC(=O)c3ccc(F)c(Cl)c3)CC2)cc1N(C)CCc1ccccc1.Cl` [Example 49, 3-Chloro-4-fluoro-N-[cis-4-({5-methyl-4-[methyl(2-phenylethyl)amino]pyridin-2-yl}amino)cyclohexyl]benzamide hydrochloride], for which the “class (percent of control at 10^−7 M or IC50)” value worked out at 2.

For `Cc1cc(C)c(N[C@H]2CC[C@@H](NC(=O)c3ccc(F)c(Cl)c3)CC2)nc1C.Cl` [Example 53, 3-Chloro-4-fluoro-N-{cis-4-[(3,5,6-trimethylpyridin-2-yl)amino]cyclohexyl}benzamide hydrochloride], the “class (percent of control at 10^−7 M or IC50)” value is listed as 2.

For `CCCN(CCC)S(=O)(=O)c1ccc(C(=O)N[C@H]2CC[C@@H](Nc3cc(N(C)C)cc(C)n3)CC2)cc1` [Example 166, N-(cis-4-{[4-(dimethylamino)-6-methylpyridin-2-yl]amino}cyclohexyl)-4-[(dipropylamino)sulfonyl]benzamide], the “class (percent of control at 10^−7 M or IC50)” value came to 2.

Take `Cc1cc(N(C)C)cc(N[C@H]2CC[C@@H](NC(=O)Cc3cccc4ccccc34)CC2)n1` [Example 168, N-(cis-4-{[4-(dimethylamino)-6-methylpyridin-2-yl]amino}cyclohexyl)-2-(1-naphthyl)acetamide]: the “class (percent of control at 10^−7 M or IC50)” value was 2.

Turning to `Cc1cc(N(C)C)cc(N[C@H]2CC[C@@H](NC(=O)c3cccc(C(F)(F)F)c3)CC2)n1` [Example 177, N-(cis-4-{[4-(dimethylamino)-6-methylpyridin-2-yl]amino}cyclohexyl)-3-(trifluoromethyl)benzamide], the “class (percent of control at 10^−7 M or IC50)” value was 2.

With `Cc1cc(N(C)C)cc(N[C@H]2CC[C@@H](NC(=O)c3cccnc3Oc3ccccc3)CC2)n1` [Example 203, N-(cis-4-{[4-(dimethylamino)-6-methylpyridin-2-yl]amino}cyclohexyl)-2-phenoxynicotinamide], the “class (percent of control at 10^−7 M or IC50)” value was determined as 2.

As for `Cc1cc(N(C)C)cc(N[C@H]2CC[C@@H](NCCOc3ccc(Cl)cc3)CC2)n1` [Example 209, N-(cis-4-{[2-(4-chlorophenoxy)ethyl]amino}cyclohexyl)-N,N-6-trimethylpyridine-2,4-diamine], the “class (percent of control at 10^−7 M or IC50)” value stood at 2.

The experiment is the same for the next values; noted with them: FLIPR/FDSS, [Ca2+]i evoked by 50 nM MCH; class by percent of control at 10^−7 M or IC50; read-out: class (percent of control at 10^−7 M or IC50).
Take `Cc1cc(N[C@H]2CC[C@@H](NC(=O)c3ccc(F)c(Cl)c3)CC2)nc2c1CCC2` [Example 33, 3-Chloro-4-fluoro-N-{cis-4-[(4-methyl-6,7-dihydro-5H-cyclopenta[b]pyridin-2-yl)amino]cyclohexyl}benzamide hydrochloride]: the IC50 was under 50 nM.

For the molecule `Cc1cc(N[C@H]2CC[C@@H](NC(=O)c3ccc(F)c(Cl)c3)CC2)nc2c1CCCC2` [Example 34, 3-Chloro-4-fluoro-N-{cis-4-[(4-methyl-5,6,7,8-tetrahydroquinolin-2-yl)amino]cyclohexyl}benzamide hydrochloride], the IC50 is under 50 nM.

For the molecule `CN(C)c1ccnc(N[C@H]2CC[C@@H](NC(=O)c3ccc(F)c(Cl)c3)CC2)c1` [Example 36, 3-Chloro-N-(cis-4-{[4-(dimethylamino)pyridin-2-yl]amino}cyclohexyl)-4-fluorobenzamide hydrochloride], the IC50 is under 50 nM.

Regarding `CN(C)c1ccnc(N[C@H]2CC[C@@H](NC(=O)c3cc(F)c(F)c(F)c3)CC2)c1` [Example 37, N-(cis-4-{[4-(Dimethylamino)pyridin-2-yl]amino}cyclohexyl)-3,4,5-trifluorobenzamide hydrochloride], the IC50 is under 50 nM.

As for `O=C(N[C@H]1CC[C@@H](Nc2ccc3c(n2)CCCC3)CC1)c1ccc(F)c(Cl)c1` [Example 39, 3-Chloro-4-fluoro-N-[cis-4-(5,6,7,8-tetrahydroquinolin-2-ylamino)cyclohexyl]benzamide hydrochloride], the IC50 is under 50 nM.

As to `O=C(N[C@H]1CC[C@@H](Nc2ccc3c(n2)CCCC3)CC1)c1cc(F)c(F)c(F)c1` [Example 40, 3,4,5-Trifluoro-N-[cis-4-(5,6,7,8-tetrahydroquinolin-2-ylamino)cyclohexyl]benzamide hydrochloride], the IC50 was under 50 nM.

As to `Cc1ccc(N[C@H]2CC[C@@H](NC(=O)c3ccc(F)c(Cl)c3)CC2)nc1C` [Example 43, 3-Chloro-N-{cis-4-[(5,6-dimethylpyridin-2-yl)amino]cyclohexyl}-4-fluorobenzamide hydrochloride], the IC50 was under 50 nM.

Consider `Cc1cc(N[C@H]2CC[C@@H](NC(=O)c3ccc(F)c(Cl)c3)CC2)nc(C)c1C` [Example 50, 3-Chloro-4-fluoro-N-{cis-4-[(4,5,6-trimethylpyridin-2-yl)amino]cyclohexyl}benzamide hydrochloride], for which the IC50 was under 50 nM.

As to `Cc1cnc(N[C@H]2CC[C@@H](NC(=O)c3ccc(F)c(Cl)c3)CC2)cc1C` [Example 51, 3-Chloro-N-{cis-4-[(4,5-dimethylpyridin-2-yl)amino]cyclohexyl}-4-fluorobenzamide hydrochloride], the IC50 is under 50 nM.

Turning to `Cc1cc(C)nc(N[C@H]2CC[C@@H](NC(=O)c3ccc(F)c(Cl)c3)CC2)c1` [Example 52, 3-Chloro-N-{cis-4-[(4,6-dimethylpyridin-2-yl)amino]cyclohexyl}-4-fluorobenzamide hydrochloride], the IC50 is under 50 nM.

As for `Cc1cc(N(C)C)cc(N[C@H]2CC[C@@H](NC(=O)c3ccc4nonc4c3)CC2)n1` [Example 146, N-(cis-4-{[4-(dimethylamino)-6-methylpyridin-2-yl]amino}cyclohexyl)-2,1,3-benzoxadiazole-5-carboxamide], the IC50 is under 50 nM.

For `Cc1cc(N(C)C)cc(N[C@H]2CC[C@@H](NC(=O)COc3ccc(Cl)cc3)CC2)n1` [Example 147, 2-(4-chlorophenoxy)-N-(cis-4-{[4-(dimethylamino)-6-methylpyridin-2-yl]amino}cyclohexyl)acetamide], the IC50 was under 50 nM.

Turning to `Cc1cc(N(C)C)cc(N[C@H]2CC[C@@H](NC(=O)c3ccc(F)c(F)c3)CC2)n1` [Example 171, N-(cis-4-{[4-(dimethylamino)-6-methylpyridin-2-yl]amino}cyclohexyl)-3,4-difluorobenzamide], the IC50 is under 50 nM.

Regarding `Cc1cc(N(C)C)cc(N[C@H]2CC[C@@H](NC(=O)c3ccc(Cl)cc3)CC2)n1` [Example 185, 4-chloro-N-(cis-4-{[4-(dimethylamino)-6-methylpyridin-2-yl]amino}cyclohexyl)benzamide], the IC50 was under 50 nM.

With `Cc1cc(N(C)C)cc(N[C@H]2CC[C@@H](NC(=O)C3(c4ccc(Cl)cc4)CCCC3)CC2)n1` [Example 186, 1-(4-chlorophenyl)-N-(cis-4-{[4-(dimethylamino)-6-methylpyridin-2-yl]amino}cyclohexyl)cyclopentanecarboxamide], the IC50 is under 50 nM.

As to `Cc1cc(N(C)C)cc(N[C@H]2CC[C@@H](NC(=O)c3cccc([N+](=O)[O-])c3)CC2)n1` [Example 190, N-(cis-4-{[4-(dimethylamino)-6-methylpyridin-2-yl]amino}cyclohexyl)-3-nitrobenzamide], the IC50 is under 50 nM.

For the molecule `COc1ccc(Oc2ccc([N+](=O)[O-])cc2C(=O)N[C@H]2CC[C@@H](Nc3cc(N(C)C)cc(C)n3)CC2)cc1` [Example 192, N-(cis-4-{[4-(dimethylamino)-6-methylpyridin-2-yl]amino}cyclohexyl)-2-(4-methoxyphenoxy)-5-nitrobenzamide], the half-inhibitory concentration (IC50) was under 50 nM.
